In the supplement of paper PMC11208160:

Assay: recombinant UMI read abundance after kanamycin selection (control-corrected) (log10(CPM+1)); higher = more efficient recombination; extreme values may be limits of the assay; sequences stand for … in AGTGCAGAGAAAATCGGCCAGTTTTCTCTGCCTGCAGTCCGCATGCCGTGGGACCCCTTGGGTTCTAACCTGTTGCCTAGATTTATGCAGCGGACTGCCTTTCTCCCAAAGTGATAAACCGG…AGGTTGGTTTCACT; site = the 11-nt donor
Procedure: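 Pooled E. coli donor-specificity screen for the IS621 bridge recombinase. Each library member carries a reprogrammed 11-nt donor and a full-length LE bridge RNA expressed in cis from the natural promoter, with a paired donor-binding loop (8-nt LDG + 4-nt RDG) and a target-binding loop fixed to T5. It is co-electroporated with a T5 target plasmid; recombinase is induced with 0.07 mM IPTG and recombinants are selected on kanamycin. UMIs are counted as CPM, averaged over two biological replicates and corrected by the unselected control. Molecule = full bridge RNA written as DNA, built from the T5 scaffold: LDG = donor specificity nt 1-8, RDG = reverse complement of nt 8-11.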
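Note: IS621 bridge recombinase in Escherichia coli cells against a fixed T5 target plasmid.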

Sequence | recombinant UMI read abundance (log10)
ACGCATCCATGGACCGGTTTTCCCGGTAATCCGTATTTGAC (site ACTCATCCTGT) | 0
ACGCCCTCATGGACCGGTTTTCCCGGTAATCCGTATTTGGG (site ACGCCCTCTCC) | 0.119
ACGCGCCCATGGACCGGTTTTCCCGGTAATCCGTATTTGGT (site ACGCGCCCTAC) | 0.771
ACGCGGACATGGACCGGTTTTCCCGGTAATCCGTATTTGCA (site ACGCGGACTTG) | 2.76
ACGCGGCCATGGACCGGTTTTCCCGGTAATCCGTATTTGCA (site ACGCGGCCTTG) | 1.1
ACGCGTTCATGGACCGGTTTTCCCGGTAATCCGTATTTGCG (site ACGCGTTCTCG) | 1.8
ACGGCATCATGGACCGGTTTTCCCGGTAATCCGTATTTGCA (site ACAGTATCTTG) | 1.47
ACGGCATCATGGACCGGTTTTCCCGGTAATCCGTATTTGCA (site ACGGCATCTTG) | 1.77
ACGGCTACATGGACCGGTTTTCCCGGTAATCCGTATTTGAC (site ACGGCTACTGT) | 2.45
ACGGGACCATGGACCGGTTTTCCCGGTAATCCGTATTTGTA (site ACGGGACCTTA) | 0.00398
ACGGGCACATGGACCGGTTTTCCCGGTAATCCGTATTTGGT (site ACGGGCACTAC) | 0.805
ACGGTATCATGGACCGGTTTTCCCGGTAATCCGTATTTGCG (site ACAGTATCTTG) | 2.27
ACGGTATCATGGACCGGTTTTCCCGGTAATCCGTATTTGCG (site ACGGTATCTCG) | 3.15
ACGGTATCATGGACCGGTTTTCCCGGTAATCCGTATTTGGG (site ACGGTATCTCC) | 1.62
ACGGTATCATGGACCGGTTTTCCCGGTAATCCGTATTTGTA (site ACAGTATCTTG) | 2.09
ACGGTATCATGGACCGGTTTTCCCGGTAATCCGTATTTGTA (site ACGGTATCTTA) | 3.09

Sequence | recombinant UMI read abundance (log10)
ACGGTCACATGGACCGGTTTTCCCGGTAATCCGTATTTGTA (site ACGGTCACTTA) | 1.59
ACGGTTTCATGGACCGGTTTTCCCGGTAATCCGTATTTGTG (site ACGGTTTCTCA) | 2.4
ACGTACTCATGGACCGGTTTTCCCGGTAATCCGTATTTGGA (site ACGTACTCTTC) | 2.95
ACGTAGGCATGGACCGGTTTTCCCGGTAATCCGTATTTGAA (site ACGTAGGCTTT) | 1.96
ACGTAGGCATGGACCGGTTTTCCCGGTAATCCGTATTTGGC (site AAGTAGGCTGC) | 1.32
ACGTAGGCATGGACCGGTTTTCCCGGTAATCCGTATTTGGC (site ACGTAGGCTGC) | 2.6
ACGTAGGCATGGACCGGTTTTCCCGGTAATCCGTATTTGGC (site AGGTAGGCTGC) | 1.06
ACGTAGGCATGGACCGGTTTTCCCGGTAATCCGTATTTGGC (site ATGTAGGCTGC) | 1.21
ACGTGAGCATGGACCGGTTTTCCCGGTAATCCGTATTTGGA (site ACGTGAGCTTC) | 1.78
ACGTTAGCATGGACCGGTTTTCCCGGTAATCCGTATTTGTG (site ACGTTAGCTCA) | 1.84
ACGTTAGCATGGACCGGTTTTCCCGGTAATCCGTATTTGTG (site CCGTTAGCTCA) | 0.742
ACGTTAGCATGGACCGGTTTTCCCGGTAATCCGTATTTGTG (site GCGTTAGCTCA) | 0.298
ACGTTAGCATGGACCGGTTTTCCCGGTAATCCGTATTTGTG (site TCGTTAGCTCA) | 0.526
ACGTTCACATGGACCGGTTTTCCCGGTAATCCGTATTTGCC (site ACGTTCACTGG) | 2.69
ACGTTGCCATGGACCGGTTTTCCCGGTAATCCGTATTTGTT (site ACGTTGCCTAA) | 0.363
ACTAAAACATGGACCGGTTTTCCCGGTAATCCGTATTTGAG (site ACTAAAACTCT) | 1.77
